Data reported in ChEMBL document CHEMBL1154408, “Molecular epidemiology of imipenem-resistant Acinetobacter haemolyticus and Acinetobacter baumannii isolates carrying plasmid-mediated OXA-40 from a Portuguese hospital” (2007).
Converted amounts (≈) assume the structure as drawn.

Legend:
[1] = test system: Acinetobacter haemolyticus; assay: Antibacterial activity against Acinetobacter haemolyticus expressing carbapenemase-encoding blaOXA-40 gene by Etest method; assay type: functional
[2] = test system: Acinetobacter haemolyticus; assay: Antibacterial activity against Acinetobacter haemolyticus expressing carbapenemase-encoding blaOXA-40 gene by agar dilution method; assay type: functional, organism-based
Acinetobacter baumannii [3] = assay: Antibacterial activity against Acinetobacter baumannii C clone by agar dilution method; assay type: functional, organism-based
Acinetobacter baumannii [4] = assay: Antibacterial activity against Acinetobacter baumannii A clone expressing carbapenemase-encoding blaOXA-40 gene by agar dilution method; assay type: functional, organism-based
Acinetobacter baumannii [5] = assay: Antibacterial activity against Acinetobacter baumannii B clone by agar dilution method; assay type: functional, organism-based
Acinetobacter baumannii [6] = assay: Antibacterial activity against Acinetobacter baumannii B clone by Etest method; assay type: functional
Acinetobacter baumannii [7] = assay: Antibacterial activity against Acinetobacter baumannii C clone by Etest method; assay type: functional
Acinetobacter baumannii [8] = assay: Antibacterial activity against Acinetobacter baumannii A clone expressing carbapenemase-encoding blaOXA-40 gene by Etest method; assay type: functional

## C[C@H]1[C@H](NC(=O)/C(=N\OC(C)(C)C(=O)O)c2csc(N)n2)C(=O)N1S(=O)(=O)O [AZTREONAM]
[1]
  MIC: 4 mg/L (≈ 9.19 µM)

## COLISTIN
[2]
  MIC: 4 mg/L
Acinetobacter baumannii [3]
  MIC: 2 mg/L
Acinetobacter baumannii [4]
  MIC: > 16 mg/L
Acinetobacter baumannii [5]
  MIC: > 16 mg/L

## C[C@@H](O)[C@H]1C(=O)N2C(C(=O)O)=C(S[C@@H]3CN[C@H](C(=O)N(C)C)C3)[C@H](C)[C@H]12 [MEROPENEM]
Acinetobacter baumannii [6]
  MIC: 2 mg/L (≈ 5.22 µM)
Acinetobacter baumannii [7]
  MIC: 4 mg/L (≈ 10.4 µM)
Acinetobacter baumannii [8]
  MIC: ≥ 32 mg/L
[1]
  MIC: ≥ 32 mg/L

## CC1(C)S[C@@H]2[C@H](NC(=O)[C@H](C(=O)O)c3ccsc3)C(=O)N2[C@H]1C(=O)O [TICARCILLIN]
Acinetobacter baumannii [6]
  MIC: ≥ 256 mg/L
Acinetobacter baumannii [7]
  MIC: ≥ 256 mg/L
Acinetobacter baumannii [8]
  MIC: ≥ 256 mg/L
[1]
  MIC: ≥ 256 mg/L

## CO[C@@]1(NC(=O)Cc2cccs2)C(=O)N2C(C(=O)O)=C(COC(N)=O)CS[C@@H]21 [CEFOXITIN]
Acinetobacter baumannii [6]
  MIC: ≥ 256 mg/L
Acinetobacter baumannii [7]
  MIC: ≥ 256 mg/L
Acinetobacter baumannii [8]
  MIC: ≥ 256 mg/L
[1]
  MIC: 32 mg/L (≈ 74.9 µM)

## CC1(C)S[C@@H]2[C@H](NC(=O)[C@H](N)c3ccc(O)cc3)C(=O)N2[C@H]1C(=O)O [AMOXICILLIN]
Acinetobacter baumannii [6]
  MIC: > 64 mg/L
Acinetobacter baumannii [7]
  MIC: 128 mg/L (≈ 350 µM)
Acinetobacter baumannii [8]
  MIC: ≥ 256 mg/L
[1]
  MIC: ≥ 256 mg/L

## CCN1CCN(C(=O)N[C@@H](C(=O)N[C@@H]2C(=O)N3[C@@H]2SC(C)(C)[C@@H]3C(=O)O)c2ccccc2)C(=O)C1=O [PIPERACILLIN]
Acinetobacter baumannii [6]
  MIC: ≥ 256 mg/L
Acinetobacter baumannii [7]
  MIC: 64 mg/L (≈ 124 µM)
Acinetobacter baumannii [8]
  MIC: ≥ 256 mg/L
[1]
  MIC: ≥ 256 mg/L

## CO/N=C(\C(=O)N[C@@H]1C(=O)N2C(C(=O)[O-])=C(C[N+]3(C)CCCC3)CS[C@H]12)c1csc(N)n1
[1]
  MIC: 4 mg/L (≈ 8.32 µM)

## C[C@@H](O)[C@H]1C(=O)N2C(C(=O)O)=C(SCCNC=N)C[C@H]12 [IMIPENEM ANHYDROUS]
Acinetobacter baumannii [6]
  MIC: ≥ 32 mg/L
Acinetobacter baumannii [7]
  MIC: 32 mg/L (≈ 107 µM)
Acinetobacter baumannii [8]
  MIC: ≥ 32 mg/L
[1]
  MIC: ≥ 32 mg/L

## CC(C)(O/N=C(\C(=O)N[C@@H]1C(=O)N2C(C(=O)[O-])=C(C[n+]3ccccc3)CS[C@H]12)c1csc(N)n1)C(=O)O [CEFTAZIDIME]
Acinetobacter baumannii [6]
  MIC: 4 mg/L (≈ 7.32 µM)
Acinetobacter baumannii [7]
  MIC: 4 mg/L (≈ 7.32 µM)
Acinetobacter baumannii [8]
  MIC: 256 mg/L (≈ 468 µM)
[1]
  MIC: 4 mg/L (≈ 7.32 µM)
